Earlier results in patent publication US10314836B2, “Quinoline carboxamides for use in the treatment of multiple myeloma” (Active Biotech AB, priority 2014, dated 2019).

System: castrate resistant prostate cancer (CRPC) metastatic to the bone
Conditions: oral treatment

For `COc1cccc2c1c(O)c(C(=O)N(C)c1ccc(C(F)(F)F)cc1)c(=O)n2C` [tasquinimod, 4-hydroxy-5-methoxy-N,1-dimethyl-2-oxo-N-[4-(trifluoromethyl)phenyl]-1,2-dihydroquinoline-3-carboxamide], the “effect on overall survival” value is listed as “lack a sufficient effect on overall survival”.
